From patent US5252495A, “Immunoassay for physostigmine” (priority 1992, dated 1993)

Experiments:
[1] = target: Antibody from Diazo-coupled Immunogen; test: RIA cross-reactivity: competition with labeled physostigmine for antibody from diazo-coupled immunogen; assay type: binding, New Zealand white rabbits; details: 1:150, max 1000 ng tested
Method: (§1) Antibodies to the physostigmine-BSA immunogen were produced by injecting male New Zealand white rabbits with immunogens formed by either method. Prior to injection, the immunogen was emulsified with an equal volume of complete Freund's adjuvant, purchased from Difco Laboratories of Detroit, Mich. The initial immunization consisted of 0.8 mg of protein injected intracutaneously in multiple dorsal sites of the rabbits. Booster injections containing 0.8 mg of immunogen and incomplete Freund's adjuvant were administered every two months for the next six months. Antisera was collected one week after each booster injection from the central ear vein. The blood was allowed to clot at room temperature and then centrifuged at 1500×g for 15 minutes. The separated serum was stored frozen at -20° C. until assayed for the presence of physostigmine antibody.
In the assay procedure ^3 H-Physostigmine having specificity of 19.0 Ci/mmole and purchased from the Amersham Corp. of Arlington Heights, Ill., was used as tracer. The dilution of tracer (5000 dpm), antibody (1:150) and physostigmine standards (100-10,000 pg) were made using 0.01M phosphate buffer containing 150 mM sodium chloride with a pH of 7.4. […] Both standard and sample tubes were always analyzed in duplicate. The assay was carried out according to the protocol shown in Table 1 with the reagents were added to the assay tubes in the order shown.
(§2) According to the protocol for the RIA of the present invention, after the addition of antisera, the contents of the tubes were mixed and incubated for 3 hours at 4° C. The antigen which bound to the antibody was separated by adding saturated ammonium sulfate and centrifuging at 2500×g for 15 minutes. After aspiration of the supernatant, the precipitate was washed one time with 50% saturated ammonium sulfate; then the mixture was centrifuged and the supernatent removed. The precipitate was dissolved in 1.0 ml of distilled water, and the solution was transferred to a scintillation vial containing 10.0 ml of acquasol 2.
(§3) The radioactivity which was bound to the antibody was determined in counts per minute with a Beckman LS-3133P Liquid Scintillation Counter. […] The concentration of physostigmine is plotted on the horizontal axis, while the percent inhibition of binding radioactively labeled is plotted on the vertical axis. […] Concentrations of physostigmine in unknown samples were determined according to conventional calculations from the standard curve.
(§4) Competition of the compounds with labeled physostigmine (5000 dpm) for antibody binding sites was determined arbitrarily at 50% inhibition of the physostigmine on the standard curve. Each compound was tested for cross-reactivity with the antibody. The maximum concentration of each compound tested was 1000 ng.

[2] = cited from earlier work
[3] = cited from earlier work; remark: listed apart in the source
[4] = target: Antibody from Mannich Immunogen; test: RIA cross-reactivity: competition with labeled physostigmine for antibody from Mannich immunogen; assay type: binding, New Zealand white rabbits; details: 1:100, max 1000 ng tested
Method: as §1
In the assay procedure ^3 H-Physostigmine having specificity of 19.0 Ci/mmole and purchased from the Amersham Corp. of Arlington Heights, Ill., was used as tracer. […] Both standard and sample tubes were always analyzed in duplicate. The assay was carried out according to the protocol shown in Table 1 with the reagents were added to the assay tubes in the order shown.
as §2, §3, §4

[5] = particularly in plasma and blood; cited from earlier work

CNC(=O)Oc1ccc2c(c1)[C@]1(C)CCN(C)[C@@H]1N2C [Physostigmine, physostigmine]
IC50 (50% inhibition of binding of 3H-physostigmine) [1]: 1.35 ng | adverse muscarinic effects ([2]; certain patients): nausea, vomiting, diarrhea, miosis, excessive salivation and sweating, abdominal cramps, bradycardia, bronchial secretion and bronchospasm | toxic level relative to therapeutic level ([2]; clinical use): toxic at levels very close to those which produce therapeutic results | effect of substantial over administration ([2]; overdose): cholinergic crisis leading to death | other side effects ([2]; thrombophlebitis if administered intravenously): generalized weakness, muscle cramps, fasciculation, hypotension, and, if administered intraveneously, thrombophlebitis | lipid solubility [3]: high degree of lipid solubility | solubility in biological fluids [3]: soluble in biological fluids | IC50 (50% inhibition of binding of 3H-physostigmine) [4]: 1.35 ng | in vitro hydrolysis in biological solutions [5]: extensive in vitro hydrolysis
